Test results reported in BindingDB's records for doi:10.1111/j.1476-5381.1995.tb16628.x (Syntex Discovery Research, 1995).
pKi: −log10 of the molar value. Where “and” joins values, the source holds several entries; their conditions need not be identical. Equal entries are not always repeated.

Legend:
[1] = molecular target: T1, Alpha-2A adrenergic receptor [16-465] (Rattus norvegicus, UniProt P22909)
T1 construct: 16-465
T1 sequence (P22909 whole entry): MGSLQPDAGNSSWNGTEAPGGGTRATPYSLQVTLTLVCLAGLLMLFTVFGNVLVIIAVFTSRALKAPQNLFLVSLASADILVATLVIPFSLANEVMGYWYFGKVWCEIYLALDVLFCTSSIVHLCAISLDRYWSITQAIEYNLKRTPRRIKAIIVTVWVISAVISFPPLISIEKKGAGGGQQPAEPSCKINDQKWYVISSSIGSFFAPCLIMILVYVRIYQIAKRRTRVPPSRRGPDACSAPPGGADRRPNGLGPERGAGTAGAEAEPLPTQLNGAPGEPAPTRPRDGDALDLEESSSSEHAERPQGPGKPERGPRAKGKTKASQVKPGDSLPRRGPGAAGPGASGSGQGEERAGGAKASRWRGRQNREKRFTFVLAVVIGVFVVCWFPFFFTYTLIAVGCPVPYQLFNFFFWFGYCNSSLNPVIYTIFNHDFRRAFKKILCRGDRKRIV

[2] = molecular target: 5-hydroxytryptamine receptor 2A (Rattus norvegicus, UniProt P14842)
Chain of 5-hydroxytryptamine receptor 2A (P14842 whole entry): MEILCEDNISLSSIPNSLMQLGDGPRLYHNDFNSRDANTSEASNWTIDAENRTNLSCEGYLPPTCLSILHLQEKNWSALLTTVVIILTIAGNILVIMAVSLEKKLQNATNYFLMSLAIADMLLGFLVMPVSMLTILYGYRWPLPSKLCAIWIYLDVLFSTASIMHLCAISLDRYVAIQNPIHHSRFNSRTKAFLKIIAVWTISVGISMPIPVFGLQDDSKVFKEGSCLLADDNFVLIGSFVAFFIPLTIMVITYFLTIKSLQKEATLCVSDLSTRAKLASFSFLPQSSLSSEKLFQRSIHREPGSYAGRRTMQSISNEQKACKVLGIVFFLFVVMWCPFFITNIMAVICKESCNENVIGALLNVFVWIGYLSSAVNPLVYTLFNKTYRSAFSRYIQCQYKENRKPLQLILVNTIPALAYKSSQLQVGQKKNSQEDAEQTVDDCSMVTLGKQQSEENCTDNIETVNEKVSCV

[3] = molecular target: T2, Alpha-1B adrenergic receptor (Rattus norvegicus, UniProt P15823)
T2 sequence (P15823 whole entry): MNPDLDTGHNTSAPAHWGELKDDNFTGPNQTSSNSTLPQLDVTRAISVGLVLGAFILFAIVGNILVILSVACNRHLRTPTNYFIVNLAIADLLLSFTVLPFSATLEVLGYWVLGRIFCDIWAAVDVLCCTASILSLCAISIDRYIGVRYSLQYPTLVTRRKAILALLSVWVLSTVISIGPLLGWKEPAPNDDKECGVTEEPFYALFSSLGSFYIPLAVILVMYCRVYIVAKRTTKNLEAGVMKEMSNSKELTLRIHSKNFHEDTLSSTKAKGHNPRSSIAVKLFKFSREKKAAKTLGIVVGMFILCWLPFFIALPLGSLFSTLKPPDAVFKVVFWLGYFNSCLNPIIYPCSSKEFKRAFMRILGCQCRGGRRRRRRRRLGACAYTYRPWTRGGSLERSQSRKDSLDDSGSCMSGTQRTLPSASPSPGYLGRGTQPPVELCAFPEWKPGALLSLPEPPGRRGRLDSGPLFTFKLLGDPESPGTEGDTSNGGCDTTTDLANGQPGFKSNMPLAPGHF

[4] = molecular target: Sigma non-opioid intracellular receptor 1 (Cavia porcellus, UniProt Q60492)
Chain of Sigma non-opioid intracellular receptor 1 (Q60492 whole entry): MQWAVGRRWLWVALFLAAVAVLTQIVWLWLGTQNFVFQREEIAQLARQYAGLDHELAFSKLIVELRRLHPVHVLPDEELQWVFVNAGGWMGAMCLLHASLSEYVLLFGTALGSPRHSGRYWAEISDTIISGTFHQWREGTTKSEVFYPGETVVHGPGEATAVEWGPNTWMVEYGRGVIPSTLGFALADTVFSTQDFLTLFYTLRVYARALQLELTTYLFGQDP

[5] = molecular target: Beta-1 adrenergic receptor (Rattus norvegicus, UniProt P18090)
Chain of Beta-1 adrenergic receptor (P18090 whole entry): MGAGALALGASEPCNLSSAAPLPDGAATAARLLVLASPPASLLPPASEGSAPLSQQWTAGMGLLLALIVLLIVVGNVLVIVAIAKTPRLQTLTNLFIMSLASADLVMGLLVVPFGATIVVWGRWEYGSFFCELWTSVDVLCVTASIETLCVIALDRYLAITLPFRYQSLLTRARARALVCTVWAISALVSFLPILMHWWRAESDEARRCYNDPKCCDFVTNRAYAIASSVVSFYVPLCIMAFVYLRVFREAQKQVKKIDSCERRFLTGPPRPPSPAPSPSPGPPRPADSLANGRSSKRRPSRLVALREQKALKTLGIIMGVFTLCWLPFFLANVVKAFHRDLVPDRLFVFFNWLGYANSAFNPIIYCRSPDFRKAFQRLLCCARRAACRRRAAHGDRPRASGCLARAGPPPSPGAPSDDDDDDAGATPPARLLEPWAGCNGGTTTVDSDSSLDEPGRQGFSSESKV

[6] = molecular target: T3, Alpha-1A adrenergic receptor (Rattus norvegicus, UniProt P43140)
T3 sequence (P43140 whole entry): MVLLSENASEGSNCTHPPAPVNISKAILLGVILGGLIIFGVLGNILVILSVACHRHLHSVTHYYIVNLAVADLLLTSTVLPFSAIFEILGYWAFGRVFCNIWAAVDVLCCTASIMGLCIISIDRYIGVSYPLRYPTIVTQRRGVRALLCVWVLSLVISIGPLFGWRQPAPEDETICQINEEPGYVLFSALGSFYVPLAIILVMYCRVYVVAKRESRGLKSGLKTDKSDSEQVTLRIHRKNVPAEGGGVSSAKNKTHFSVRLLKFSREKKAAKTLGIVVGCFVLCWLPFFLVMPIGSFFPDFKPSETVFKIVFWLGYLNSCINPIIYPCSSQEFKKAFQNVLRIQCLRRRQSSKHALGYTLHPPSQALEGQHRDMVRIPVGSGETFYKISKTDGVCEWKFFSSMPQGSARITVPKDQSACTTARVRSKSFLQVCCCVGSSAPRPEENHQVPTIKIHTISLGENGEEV

[7] = molecular target: T4, 5-hydroxytryptamine receptor 2C (Rattus norvegicus, UniProt P08909)
T4 sequence (P08909 whole entry): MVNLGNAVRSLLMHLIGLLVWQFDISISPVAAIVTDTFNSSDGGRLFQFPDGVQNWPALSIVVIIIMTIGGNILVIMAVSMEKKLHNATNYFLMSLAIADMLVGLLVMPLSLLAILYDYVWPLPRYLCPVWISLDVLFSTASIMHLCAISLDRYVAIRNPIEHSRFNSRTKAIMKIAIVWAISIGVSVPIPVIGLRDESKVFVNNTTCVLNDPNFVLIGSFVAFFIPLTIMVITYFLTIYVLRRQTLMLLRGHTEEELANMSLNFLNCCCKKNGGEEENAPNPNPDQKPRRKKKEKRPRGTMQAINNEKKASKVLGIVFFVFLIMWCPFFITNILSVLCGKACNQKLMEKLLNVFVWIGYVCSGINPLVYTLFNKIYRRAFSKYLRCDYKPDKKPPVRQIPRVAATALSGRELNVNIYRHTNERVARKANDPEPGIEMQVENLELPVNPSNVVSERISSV

[8] = molecular target: T5, 5-hydroxytryptamine receptor 3A (Rattus norvegicus, UniProt P35563)
T5 sequence (P35563 whole entry): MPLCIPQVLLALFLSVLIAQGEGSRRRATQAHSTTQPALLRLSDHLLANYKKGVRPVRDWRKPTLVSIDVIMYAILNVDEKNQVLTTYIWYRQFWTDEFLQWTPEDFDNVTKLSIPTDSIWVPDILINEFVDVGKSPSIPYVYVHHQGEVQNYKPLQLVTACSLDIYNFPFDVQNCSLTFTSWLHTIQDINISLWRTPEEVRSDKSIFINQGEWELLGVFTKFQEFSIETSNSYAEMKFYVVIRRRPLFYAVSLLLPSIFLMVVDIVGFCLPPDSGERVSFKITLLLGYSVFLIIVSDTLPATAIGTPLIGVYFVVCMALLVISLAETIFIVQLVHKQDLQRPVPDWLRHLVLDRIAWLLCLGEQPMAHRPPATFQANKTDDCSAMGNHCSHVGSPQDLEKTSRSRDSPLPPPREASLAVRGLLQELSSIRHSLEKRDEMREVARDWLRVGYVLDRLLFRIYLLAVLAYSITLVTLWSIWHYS

[9] = molecular target: 5-hydroxytryptamine receptor 4 (Cavia porcellus, UniProt O70528)
Chain of 5-hydroxytryptamine receptor 4 (O70528 whole entry): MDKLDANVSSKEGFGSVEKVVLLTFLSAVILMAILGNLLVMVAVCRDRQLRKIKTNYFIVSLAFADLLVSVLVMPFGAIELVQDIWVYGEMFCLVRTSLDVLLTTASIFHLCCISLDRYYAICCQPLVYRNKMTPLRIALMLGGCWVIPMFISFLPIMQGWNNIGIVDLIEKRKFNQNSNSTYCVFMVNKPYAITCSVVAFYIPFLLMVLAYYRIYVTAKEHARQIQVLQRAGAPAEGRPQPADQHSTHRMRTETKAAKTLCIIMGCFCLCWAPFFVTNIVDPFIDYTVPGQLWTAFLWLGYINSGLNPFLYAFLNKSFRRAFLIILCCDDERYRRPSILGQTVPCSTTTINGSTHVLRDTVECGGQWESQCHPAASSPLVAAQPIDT

[10] = molecular target: T6, Alpha-2B adrenergic receptor (Rattus norvegicus, UniProt P19328)
T6 sequence (P19328 whole entry): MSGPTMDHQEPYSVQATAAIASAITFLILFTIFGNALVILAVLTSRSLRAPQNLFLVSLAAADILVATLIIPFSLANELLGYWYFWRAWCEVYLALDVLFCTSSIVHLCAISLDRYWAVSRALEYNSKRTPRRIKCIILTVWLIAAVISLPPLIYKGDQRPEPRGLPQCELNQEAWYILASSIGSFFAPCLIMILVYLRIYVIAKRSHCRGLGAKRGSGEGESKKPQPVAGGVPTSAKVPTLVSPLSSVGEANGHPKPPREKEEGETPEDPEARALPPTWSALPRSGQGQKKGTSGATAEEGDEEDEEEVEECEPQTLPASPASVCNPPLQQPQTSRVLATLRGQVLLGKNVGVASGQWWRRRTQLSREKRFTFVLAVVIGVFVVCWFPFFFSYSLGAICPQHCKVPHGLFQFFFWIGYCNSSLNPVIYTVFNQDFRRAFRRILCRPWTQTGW

[11] = molecular target: T7, Muscarinic acetylcholine receptor M2 (Rattus norvegicus, UniProt P10980)
T7 sequence (P10980 whole entry): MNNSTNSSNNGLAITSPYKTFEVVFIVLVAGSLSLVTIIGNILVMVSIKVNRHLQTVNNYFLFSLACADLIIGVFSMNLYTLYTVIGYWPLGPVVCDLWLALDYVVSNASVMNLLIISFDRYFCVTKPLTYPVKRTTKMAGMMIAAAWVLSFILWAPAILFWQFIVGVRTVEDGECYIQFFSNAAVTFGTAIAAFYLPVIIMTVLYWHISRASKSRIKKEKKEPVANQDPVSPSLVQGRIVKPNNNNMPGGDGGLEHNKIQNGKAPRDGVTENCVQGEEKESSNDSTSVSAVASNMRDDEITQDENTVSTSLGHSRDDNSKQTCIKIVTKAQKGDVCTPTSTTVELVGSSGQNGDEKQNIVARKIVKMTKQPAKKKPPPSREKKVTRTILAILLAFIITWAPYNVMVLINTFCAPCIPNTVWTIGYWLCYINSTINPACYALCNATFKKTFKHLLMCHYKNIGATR

[12] = molecular target: T8, Muscarinic acetylcholine receptor M1 (Rattus norvegicus, UniProt P08482)
T8 sequence (P08482 whole entry): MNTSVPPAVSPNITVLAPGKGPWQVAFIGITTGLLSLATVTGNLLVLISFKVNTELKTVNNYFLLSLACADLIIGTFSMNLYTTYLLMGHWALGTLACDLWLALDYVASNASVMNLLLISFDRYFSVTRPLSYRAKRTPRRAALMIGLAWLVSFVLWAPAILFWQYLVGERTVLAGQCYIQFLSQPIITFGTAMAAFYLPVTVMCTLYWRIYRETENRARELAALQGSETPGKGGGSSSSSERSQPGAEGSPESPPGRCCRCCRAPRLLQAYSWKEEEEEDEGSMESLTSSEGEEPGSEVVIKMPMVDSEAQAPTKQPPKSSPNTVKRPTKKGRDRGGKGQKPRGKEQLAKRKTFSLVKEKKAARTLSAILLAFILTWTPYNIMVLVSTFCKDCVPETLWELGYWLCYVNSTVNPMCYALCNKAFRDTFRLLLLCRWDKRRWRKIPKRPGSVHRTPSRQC

[13] = molecular target: D(1A) dopamine receptor (Macaca mulatta, UniProt O77680)
Chain of D(1A) dopamine receptor (O77680 whole entry): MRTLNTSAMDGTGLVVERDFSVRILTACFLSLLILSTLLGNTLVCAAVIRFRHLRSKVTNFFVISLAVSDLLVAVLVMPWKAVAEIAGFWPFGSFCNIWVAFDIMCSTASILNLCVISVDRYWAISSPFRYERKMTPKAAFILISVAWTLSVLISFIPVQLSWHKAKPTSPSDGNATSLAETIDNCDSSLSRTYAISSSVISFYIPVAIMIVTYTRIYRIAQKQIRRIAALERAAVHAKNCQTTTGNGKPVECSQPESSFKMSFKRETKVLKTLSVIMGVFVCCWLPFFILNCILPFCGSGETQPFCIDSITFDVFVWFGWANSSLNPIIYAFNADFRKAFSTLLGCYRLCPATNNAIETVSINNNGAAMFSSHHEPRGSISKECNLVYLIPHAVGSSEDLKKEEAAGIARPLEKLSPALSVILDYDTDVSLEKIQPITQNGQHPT

[14] = molecular target: D(2) dopamine receptor (Sus scrofa, UniProt F1SM69)
Chain of D(2) dopamine receptor (F1SM69 whole entry): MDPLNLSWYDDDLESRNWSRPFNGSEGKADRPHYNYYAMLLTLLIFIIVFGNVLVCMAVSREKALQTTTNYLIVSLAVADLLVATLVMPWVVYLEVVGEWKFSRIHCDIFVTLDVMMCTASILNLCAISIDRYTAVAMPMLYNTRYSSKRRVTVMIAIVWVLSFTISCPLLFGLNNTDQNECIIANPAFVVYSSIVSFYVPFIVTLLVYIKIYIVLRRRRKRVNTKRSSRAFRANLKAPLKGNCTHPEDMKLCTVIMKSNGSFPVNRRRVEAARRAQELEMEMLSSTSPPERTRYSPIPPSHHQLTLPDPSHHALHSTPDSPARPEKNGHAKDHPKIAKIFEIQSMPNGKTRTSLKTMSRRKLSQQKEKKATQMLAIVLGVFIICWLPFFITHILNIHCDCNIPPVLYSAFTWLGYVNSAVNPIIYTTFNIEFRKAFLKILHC

[15] = molecular target: Beta-2 adrenergic receptor (Rattus norvegicus, UniProt P10608)
Chain of Beta-2 adrenergic receptor (P10608 whole entry): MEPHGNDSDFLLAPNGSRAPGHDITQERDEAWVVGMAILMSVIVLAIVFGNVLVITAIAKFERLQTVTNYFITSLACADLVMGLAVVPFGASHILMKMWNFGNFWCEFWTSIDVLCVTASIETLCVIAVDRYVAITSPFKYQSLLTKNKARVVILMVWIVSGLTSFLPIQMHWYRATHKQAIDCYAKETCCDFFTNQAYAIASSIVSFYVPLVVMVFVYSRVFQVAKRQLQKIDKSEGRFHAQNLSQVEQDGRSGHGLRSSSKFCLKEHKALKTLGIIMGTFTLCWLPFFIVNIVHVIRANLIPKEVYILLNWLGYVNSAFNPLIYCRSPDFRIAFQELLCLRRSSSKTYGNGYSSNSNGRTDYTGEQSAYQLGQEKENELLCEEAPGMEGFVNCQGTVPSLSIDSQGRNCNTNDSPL

[16] = molecular target: T9, 5-hydroxytryptamine receptor 1A (Rattus norvegicus, UniProt P19327)
T9 sequence (P19327 whole entry): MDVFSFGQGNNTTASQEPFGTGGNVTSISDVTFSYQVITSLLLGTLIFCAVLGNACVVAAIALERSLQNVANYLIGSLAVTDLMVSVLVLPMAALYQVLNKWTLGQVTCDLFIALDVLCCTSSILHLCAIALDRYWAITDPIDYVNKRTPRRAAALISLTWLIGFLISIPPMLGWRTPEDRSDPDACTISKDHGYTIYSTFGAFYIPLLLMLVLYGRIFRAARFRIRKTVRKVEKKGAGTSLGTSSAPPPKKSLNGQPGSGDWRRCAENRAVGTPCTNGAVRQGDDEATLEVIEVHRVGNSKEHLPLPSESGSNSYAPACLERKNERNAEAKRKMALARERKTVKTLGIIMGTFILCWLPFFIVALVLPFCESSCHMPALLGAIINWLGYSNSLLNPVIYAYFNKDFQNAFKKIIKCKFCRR

SMILES | pKi [1] | pKi [2] | pKi [3] | pKi [4] | pKi [5] | pKi [6] | pKi [7] | pKi [8] | pKi [9] | pKi [10] | pKi [11] | pKi [12] | pKi [13] | pKi [14] | pKi [15] | pKi [16]
CCCCN1CCC(CCC(=O)c2cc(Cl)c(N)cc2OC)CC1 [CAS_183782] | < 5.00 | 6.30 | 5.90 | 8.90 and 8.00 | < 5.00 | 6.70 | 6.10 | 6.40 and 5.90 | 8.70 | < 5.00 | 5.30 | 5.20 | < 5.00 | < 5.00 | < 5.00 | –
COc1cc(N)c(Cl)cc1C(=O)CCC1CCN(CCNS(C)(=O)=O)CC1 [CAS_133075] | < 5.00 | 6.00 | < 5.00 | 7.90 and 7.30 | < 5.00 | 6.40 | 5.70 | 5.60 and 5.90 | 8.80 | < 5.00 | < 5.00 | < 5.00 | < 5.00 | < 5.00 | < 5.00 | 5.70
